Values of other authors, collected in patent EP4813985A1, “PREPARATION OF QUINAZOLINONE DERIVATIVE AS KINASE INHIBITOR, AND USE THEREOF” (Xizang Haisco Pharmaceutical Co., Ltd., priority 2023, dated 2025).

What was measured:
MDR1 = MDR1 (Homo sapiens, UniProt P08183); settings: reported in the background; cited from earlier work
BCRP = target: T1, BCRP (Homo sapiens, UniProt Q9UNQ0); settings: reported in the background; cited from earlier work
T1 sequence (Q9UNQ0 1-655): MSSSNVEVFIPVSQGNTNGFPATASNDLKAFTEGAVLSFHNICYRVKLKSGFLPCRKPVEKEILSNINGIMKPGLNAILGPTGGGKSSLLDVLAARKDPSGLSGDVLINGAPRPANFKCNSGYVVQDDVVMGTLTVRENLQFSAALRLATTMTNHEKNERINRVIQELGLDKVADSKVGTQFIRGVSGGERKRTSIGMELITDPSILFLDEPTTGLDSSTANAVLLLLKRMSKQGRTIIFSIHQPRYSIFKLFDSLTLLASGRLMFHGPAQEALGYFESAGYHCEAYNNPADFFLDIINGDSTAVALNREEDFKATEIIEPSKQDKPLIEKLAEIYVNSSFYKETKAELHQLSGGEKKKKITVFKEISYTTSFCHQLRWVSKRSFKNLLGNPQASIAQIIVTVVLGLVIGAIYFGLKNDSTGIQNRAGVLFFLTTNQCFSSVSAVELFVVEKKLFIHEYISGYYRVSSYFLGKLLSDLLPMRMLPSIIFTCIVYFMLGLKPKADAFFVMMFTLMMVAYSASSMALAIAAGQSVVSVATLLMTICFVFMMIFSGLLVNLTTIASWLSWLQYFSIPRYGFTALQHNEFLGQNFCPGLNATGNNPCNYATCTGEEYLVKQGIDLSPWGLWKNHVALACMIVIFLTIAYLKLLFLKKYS

[1] = reported in the background; cited from earlier work

Chain of MDR1 (P08183 whole entry, species assumed): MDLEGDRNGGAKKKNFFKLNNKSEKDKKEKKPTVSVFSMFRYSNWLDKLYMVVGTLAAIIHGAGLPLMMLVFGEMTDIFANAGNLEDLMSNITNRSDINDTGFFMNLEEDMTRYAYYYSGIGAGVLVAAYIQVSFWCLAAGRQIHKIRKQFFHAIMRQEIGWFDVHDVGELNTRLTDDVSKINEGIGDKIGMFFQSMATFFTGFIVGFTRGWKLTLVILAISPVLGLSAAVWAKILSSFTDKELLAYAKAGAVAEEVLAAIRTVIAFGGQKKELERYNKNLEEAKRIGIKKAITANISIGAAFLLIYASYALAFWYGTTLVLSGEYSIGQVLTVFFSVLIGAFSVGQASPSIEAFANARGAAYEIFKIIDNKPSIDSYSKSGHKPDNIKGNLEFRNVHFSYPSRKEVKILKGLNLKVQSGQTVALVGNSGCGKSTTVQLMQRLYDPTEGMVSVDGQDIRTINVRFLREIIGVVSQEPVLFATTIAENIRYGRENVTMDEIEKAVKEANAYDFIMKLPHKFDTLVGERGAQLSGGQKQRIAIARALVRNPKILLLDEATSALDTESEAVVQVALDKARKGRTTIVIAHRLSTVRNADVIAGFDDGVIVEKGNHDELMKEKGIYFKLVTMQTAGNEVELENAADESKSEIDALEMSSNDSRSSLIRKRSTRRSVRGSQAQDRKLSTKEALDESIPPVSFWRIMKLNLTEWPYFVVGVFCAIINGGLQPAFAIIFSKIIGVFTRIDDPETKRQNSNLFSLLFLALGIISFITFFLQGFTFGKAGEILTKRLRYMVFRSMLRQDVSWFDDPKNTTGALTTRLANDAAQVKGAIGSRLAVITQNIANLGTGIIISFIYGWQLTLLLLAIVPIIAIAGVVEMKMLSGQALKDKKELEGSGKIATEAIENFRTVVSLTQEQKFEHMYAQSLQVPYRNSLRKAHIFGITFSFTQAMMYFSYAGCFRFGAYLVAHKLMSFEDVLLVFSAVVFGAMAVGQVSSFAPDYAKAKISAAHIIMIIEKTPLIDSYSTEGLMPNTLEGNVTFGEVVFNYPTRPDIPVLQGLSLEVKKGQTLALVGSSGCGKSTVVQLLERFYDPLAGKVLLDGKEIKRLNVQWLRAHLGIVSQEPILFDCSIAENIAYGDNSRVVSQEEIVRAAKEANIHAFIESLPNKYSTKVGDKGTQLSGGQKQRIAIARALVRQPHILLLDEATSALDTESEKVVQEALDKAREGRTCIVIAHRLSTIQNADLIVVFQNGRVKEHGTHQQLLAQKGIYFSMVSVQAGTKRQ

## CC(C)(C)c1nc(-c2cccc(NS(=O)(=O)c3c(F)cccc3F)c2F)c(-c2ccnc(N)n2)s1 [dabrafenib]
MDR1
  MDR1 efflux ratio: 11.4
BCRP
  BCRP efflux ratio: 21.0
[1]
  total brain-to-plasma ratio: 0.023
